Measurements from ChEMBL document CHEMBL1201862, “PubChem BioAssay data set” (2004).
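Each compound was tested at five concentrations against cells in 96-well plates for 48 hours. At the GI50, growth is halved.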 Calls of active or inactive are those of the source. Cut-off read from the data, not from the text of the source: active = GI50 up to about 1.1 µM and inactive = higher. Non-standard residues stand in square brackets, D forms with d. Residues, ends and D or L forms follow the SMILES beside them. ξ: configuration not given here. *: point of attachment. NMeF = CN[C@@H](Cc1ccccc1)C(=O)O; ξNMeV = CNC(C(=O)O)C(C)C; Boc = CC(C)(C)OC(=O)*; OBn = c1ccc(CO*)cc1

Legend:
Assay in all cases: DTP human tumour cell line panel, 48 h
[1] = tested on: SK-MEL-2
[2] = tested on: OVCAR-8
[3] = tested on: COLO 205
[4] = tested on: Malme-3M
[5] = tested on: RPMI-8226
[6] = tested on: SNB-19
[7] = tested on: OVCAR-3
[8] = tested on: HOP-62
[9] = tested on: SR
[10] = tested on: K562
[11] = tested on: NCI-H226
[12] = tested on: SK-OV-3
[13] = tested on: M14
[14] = tested on: OVCAR-5
[15] = tested on: PC-3
[16] = tested on: Hs-578T
[17] = tested on: DU-145
[18] = tested on: MCF7

SMILES	GI50 [1]	GI50 [2]	GI50 [3]	GI50 [4]	GI50 [5]	GI50 [6]	GI50 [7]	GI50 [8]	GI50 [9]	GI50 [10]	GI50 [11]	GI50 [12]	GI50 [13]	GI50 [14]	GI50 [15]	GI50 [16]	GI50 [17]	GI50 [18]
C=CCCCCCC(O)C(O)C/C=C\C/C=C\CC (configuration not stated)	> 18.8 µM (inactive)	> 18.8 µM (inactive)	> 18.8 µM (inactive)	> 18.8 µM (inactive)	> 18.8 µM (inactive)	> 18.8 µM (inactive)	> 18.8 µM (inactive)	> 16.8 µM (inactive)	> 9.66 µM (inactive)	> 12 µM (inactive)	> 18.8 µM (inactive)	> 18.8 µM (inactive)	> 18.8 µM (inactive)	> 18.8 µM (inactive)	–	–	–	–
O=C(O)CCC1(CCC(=O)O)CCCCCCCCC(CCC(=O)O)(CCC(=O)O)C(=O)C1=O	> 100 µM (inactive)	> 100 µM (inactive)	> 100 µM (inactive)	> 100 µM (inactive)	< 0.01 µM (active)	> 100 µM (inactive)	> 100 µM (inactive)	> 100 µM (inactive)	84.9 µM (inactive)	> 100 µM (inactive)	> 100 µM (inactive)	> 100 µM (inactive)	> 100 µM (inactive)	> 100 µM (inactive)	> 100 µM (inactive)	> 100 µM (inactive)	> 100 µM (inactive)	> 100 µM (inactive)
COC(=O)C(Cc1nc2ccccc2nc1C)/C(=N\NC(N)=O)C(=O)Nc1cccc([N+](=O)[O-])c1 (configuration not stated)	> 100 µM (inactive)	80.7 µM (inactive)	88.3 µM (inactive)	> 100 µM (inactive)	> 100 µM (inactive)	> 100 µM (inactive)	51.2 µM (inactive)	> 100 µM (inactive)	24.4 µM (inactive)	64.3 µM (inactive)	> 100 µM (inactive)	> 100 µM (inactive)	> 100 µM (inactive)	> 100 µM (inactive)	–	–	–	–
CC(=O)NC(CCCOC(C)=O)C(=O)NC(CCCOC(C)=O)C(=O)NC(CCCOC(C)=O)C(=O)NC(Cc1ccc([N+](=O)[O-])cc1)C(=O)NCC(=O)OCc1ccccc1 (configuration not stated)	> 100 µM (inactive)	> 100 µM (inactive)	> 100 µM (inactive)	> 100 µM (inactive)	> 100 µM (inactive)	> 100 µM (inactive)	> 100 µM (inactive)	> 100 µM (inactive)	74 µM (inactive)	> 100 µM (inactive)	> 100 µM (inactive)	> 100 µM (inactive)	> 100 µM (inactive)	> 100 µM (inactive)	> 100 µM (inactive)	> 100 µM (inactive)	> 100 µM (inactive)	> 100 µM (inactive)
CN(CCO)c1nc(=O)c2c([nH]1)CCC2	> 100 µM (inactive)	> 100 µM (inactive)	> 100 µM (inactive)	> 100 µM (inactive)	> 100 µM (inactive)	> 100 µM (inactive)	> 100 µM (inactive)	> 100 µM (inactive)	> 100 µM (inactive)	> 100 µM (inactive)	> 100 µM (inactive)	> 100 µM (inactive)	> 100 µM (inactive)	> 100 µM (inactive)	–	–	–	–
CC(C)C(C(=O)N1CCC[C@@H]1C(=O)OCc1ccccc1)N(C)C(=O)C(C(C)C)N(C)C(=O)[C@H](Cc1ccccc1)N(C)C(=O)[C@H](NC(=O)OC(C)(C)C)C(C)C (some centres not stated) (Boc-[dV][NMeF][ξNMeV][ξNMeV][dP]-OBn)	> 100 µM (inactive)	> 100 µM (inactive)	> 100 µM (inactive)	> 89.5 µM (inactive)	10.9 µM (inactive)	> 100 µM (inactive)	> 56.6 µM (inactive)	> 100 µM (inactive)	> 29.8 µM (inactive)	13.7 µM (inactive)	> 100 µM (inactive)	> 100 µM (inactive)	> 100 µM (inactive)	> 100 µM (inactive)	–	–	–	–
